Results: patent publication US4342753A, “Carboxyalkyl derivatives of rutin poly(H-)sulfate” (American Cyanamid Company, priority 1981, dated 1982)
Structures can show the parent of a compound that is named as a salt. Where two headings read alike, the source gives them in different places.

Legend:
[1] = system: complement activity of sera; test: Guinea Pig Intraperitoneal Test (GPIP); details: Cavia porcellus, ip, 200 mg./kg. i.p., read-out: In vivo Activity (Guinea Pig) Intraperitoneal % Inhibition
Procedure: An active inhibitor protects C2 from C1 and C4; (ii) Cap 50 Test--Here, appropriate amounts of the test compound are added to a pool of guinea pig serum in vitro, after which the undiluted serum capillary tube assay referred to above is run. The concentration of compound inhibiting 50% is reported; and (iii) Guinea Pig Intraperitoneal Test (GPIP)--Guinea pigs weighing about 300 g. are dosed intraperitoneally (i.p.) with 200 mg./kg. of the test compound dissolved in saline and adjusted to pH 7-8. Approximately 0.4 ml. blood samples, […], are collected directly into centrifuge tubes; 5 ml. blood samples, […] beakers. The samples are allowed to clot, centrifuged, and the resultant sera are assayed for complement activity using the capillary complement assay. Percent inhibition are calculated by comparison with simultaneous controls.

activated human C1 = target: T1, activated human C1 (Homo sapiens, UniProt P09871); test: Test Code 026 (C1 inhibitor); assay type: biochemical; details: serial dilutions are twofold; higher well number indicates higher activity
T1 sequence (P09871 16-437 limits assumed): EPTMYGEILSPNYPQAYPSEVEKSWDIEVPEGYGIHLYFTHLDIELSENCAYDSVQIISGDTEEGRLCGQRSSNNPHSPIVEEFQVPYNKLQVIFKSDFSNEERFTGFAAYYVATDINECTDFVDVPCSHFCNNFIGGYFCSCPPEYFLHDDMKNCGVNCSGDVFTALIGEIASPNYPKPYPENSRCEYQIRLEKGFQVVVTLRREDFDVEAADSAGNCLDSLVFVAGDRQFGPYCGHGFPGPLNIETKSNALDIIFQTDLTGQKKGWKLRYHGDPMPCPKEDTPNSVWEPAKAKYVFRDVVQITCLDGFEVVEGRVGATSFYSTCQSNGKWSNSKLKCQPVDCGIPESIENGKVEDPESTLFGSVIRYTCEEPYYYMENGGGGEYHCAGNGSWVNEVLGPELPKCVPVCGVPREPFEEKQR
T1 sequence (P09871 438-688 limits assumed): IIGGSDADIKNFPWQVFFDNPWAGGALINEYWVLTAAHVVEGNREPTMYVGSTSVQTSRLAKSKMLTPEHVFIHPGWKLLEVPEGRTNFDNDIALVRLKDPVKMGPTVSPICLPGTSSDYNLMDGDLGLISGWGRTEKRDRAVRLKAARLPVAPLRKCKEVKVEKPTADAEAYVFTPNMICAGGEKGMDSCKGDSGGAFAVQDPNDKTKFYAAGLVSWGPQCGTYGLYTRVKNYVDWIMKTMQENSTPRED
Procedure: An active inhibitor protects C2 from C1 and C4; (ii) Cap 50 Test--Here, appropriate amounts of the test compound are added to a pool of guinea pig serum in vitro, after which the undiluted serum capillary tube assay referred to above is run. The concentration of compound inhibiting 50% is reported; and (iii) Guinea Pig Intraperitoneal Test (GPIP)--Guinea pigs weighing about 300 g. are dosed intraperitoneally (i.p.) with 200 mg./kg. of the test compound dissolved in saline and adjusted to pH 7-8. Approximately 0.4 ml. blood samples, taken by orbital sinus puncture 30 minutes and one hour after injections, are collected directly into centrifuge tubes; 5 ml. blood samples, taken by decapitation 2 hours after injection are collected directly into beakers. The samples are allowed to clot, centrifuged, and the resultant sera are assayed for complement activity using the capillary complement assay. Percent inhibition are calculated by comparison with simultaneous controls.

human serum complement = details: in vitro and in vivo; cited from earlier work

In vitro Activity 026 (activity in wells, serial dilution assay) (activated human C1) [wells]	Compound	inhibition at 200 mg/kg ([1]; Time 2 hours) [%]	inhibition at 200 mg/kg ([1]; Time 6 hours) [%]	inhibition at 200 mg/kg ([1]; Time 24 hours) [%]	anticomplementary activity (human serum complement)
10	C[C@@H]1O[C@@H](OC[C@H]2O[C@@H](Oc3c(-c4ccc(OCC(=O)O)c(OS(=O)(=O)O)c4)oc4cc(OS(=O)(=O)O)cc(OS(=O)(=O)O)c4c3=O)[C@H](OS(=O)(=O)O)[C@@H](OS(=O)(=O)O)[C@@H]2OS(=O)(=O)O)[C@H](OS(=O)(=O)O)[C@H](OS(=O)(=O)O)[C@H]1OS(=O)(=O)O [4'-Carboxymethyl-rutin, nona(H-sulfate)decasodium salt]	82	69	18	–
11	C[C@@H]1O[C@@H](OC[C@H]2O[C@@H](Oc3c(-c4ccc(OCC(=O)O)c(OS(=O)(=O)O)c4)oc4cc(OCC(=O)O)cc(OS(=O)(=O)O)c4c3=O)[C@H](OS(=O)(=O)O)[C@@H](OS(=O)(=O)O)[C@@H]2OS(=O)(=O)O)[C@H](OS(=O)(=O)O)[C@H](OS(=O)(=O)O)[C@H]1OS(=O)(=O)O [4',7-Bis(carboxymethyl)rutin, octa(H-sulfate), decasodium salt]	–	–	–	–
–	pentosanpolysulfoester	–	–	–	has an anticomplementary activity on human serum, both in vitro and in vivo
